According to US20120277265A1, “NOVEL POLYQUINOLINE DERIVATIVES AND THE THERAPEUTIC USE THEREOF” (CENTRE NATIONAL DE LA RECHERCHE SCIENTIFIQUE (C.N.R.S.), priority 2005, published 2012):

Columns and labels:
[1] = UV-visible spectrophotometric titration with CuCl2 (metal/ligand stoichiometry); type: binding; settings: 15 μM ligand; Tris-HCl buffer pH 7.4/organic solvent, per ligand as in Table 3 column Solvent
Description: An organic solvent (CH3OH, dioxane or DMSO) was added in order to achieve good solubility of the ligands and metal complexes in the concentrations used in these experiments. Exact proportions of the organic solvent/buffer mixture are specified for each UV-visible characterisation of the different ligands or metal complexes.
Aliquot portions of concentrated CuCl2 or ZnCl2 solutions (M) are added to a 15 μM ligand solution so as to induce only negligible variations in volume. After each addition, changes in absorption spectra are observed immediately and are consistent between two additions, which corresponds to a rapid complexing process. The exact absorption values relating to each ligand and the copper(II) or zinc(II) complexes thereof are detailed hereinafter in the Experimental part (in the Synthesis part for ligands and hereinafter for the metal complexes).
The stoichiometry of the different ligands (L) for Cu(II) or ZN(II) have therefore been determined spectrophotometrically by metal ion titration. In this example, for an M/L ratio increasing from 0 to 1, π→π* with transition, centred at 251 nm for the free ligand, is shifted to a lower energy with a concomitant appearance of an absorption band in the visible region of the spectrum (λmax to 383 nm), which is probably the result of an MLCT transition. For greater M/L ratios, no additional change in the UV-visible absorption spectra is observed.

Aβ1-42 = target: T1, Aβ1-42 (Homo sapiens, UniProt P05067); assay: Inhibition of the precipitation of Aβ1-42 by the addition of ligand (Micro BCA assay of soluble/aggregated peptide); type: biochemical; settings: Aβ1-42 5 μM, pH 7.4; for CuCl2 % soluble Aβ: 20 μM CuCl2, 1 h 37° C. then 1 h with 200 μM ligand; for FeCl3 % soluble Aβ: 20 μM FeCl3, 1 h 37° C. then 1 h with 200 μM ligand; for ZnCl2 % soluble Aβ: 20 μM ZnCl2, 1 h 37° C. then 1 h with 200 μM ligand; for without metal % soluble Aβ: no metal salt, 1 h 37° C. then 1 h with 200 μM ligand
T1 construct: The β-amyloid peptide Aβ1-42 (Aβ1-42) was synthesised, purified (to a purity greater than 95%); made in house; host or cells: chemical peptide synthesis (no expression host)
T1 sequence (P05067 672-713): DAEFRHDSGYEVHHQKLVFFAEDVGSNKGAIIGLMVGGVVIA
Description: After a further hour of incubation, the reaction mixture is centrifuged.
Before use, the water [of Milli-Q Millipore quality] and all buffer solutions were treated on Chelex-100 resin (Biorad) (5 mg/ml) and filtered through 0.2 μm filters (Whatman) to remove potential traces of metal ions or particles.
Working solutions of the peptide were prepared by solubilising 1 mg of lyophilised peptide in 500 μl of water and 500 μl of an aqueous NaOH solution pH=12.0, while stirring in a Thermomixer Comfort (Eppendorf). The peptide preparations are subsequently centrifuged for 10 minutes at 9,000 rpm and the supernatant is used as an “Aβ stock” solution. The concentration of peptide in the “Aβ stock” is determined immediately by colorimetric assay using a Micro BCA Protein Assays kit (Pierce) from standard ranges produced using known amounts of bovine serum albumin (BSA) then the Aβ1-42 peptide solution is aliquoted and frozen rapidly in liquid nitrogen prior to being stored at −20° C. until being used.
Salts are generated by adding one hydrochloric acid equivalent per nitrogen group equivalent of the ligand dissolved in DMSO. After evaporation of the solvent, these salts are dissolved at the desired concentration with DMSO and kept at −20° C. until they are used.
The protocol was established from works by: C. S. Atwood et al., J. Neurochem. […] The final concentrations are given. 500 μl of Aβ1-42 (5 μM is set to aggregate in 20 mM Tris-HCl buffer containing 150 mM NaCl (pH=7.4) for 1 hour at 37° C. while stirring at 1,400 rpm in the absence or presence of metal ions: CuCl2, ZnCl2 or FeCl3 (20 μM). Then 50 pi of ligand to be tested (200 μM) dissolved in DMSO are added and the samples are incubated for 1 further hour at 37° C. while stirring at 1,400 rpm. The samples without ligand also receive 50 μl of DMSO. The samples (final volume=550 μ) are subsequently centrifuged for 20 min at 9,000 rpm, and 500 μl of supernatant are removed. The tube containing the precipitation pellet then receives 450 μl of assay buffer/DMSO mixture (91/9, v/v). […] Quantification is carried out on the basis of standard BSA ranges. The amounts of Aβ1-42 actually contained in the pellet and the supernatant are obtained after a correction due to the presence of a residual portion of supernatant in the pellet-containing fraction.
For the control experiments with derivatives comprising a single quinoline residue, […] of ligand were added because complexes of type L2Cu are conventionally used in these cases.

[2] = Hydrogen peroxide produced by Aβ1-42 in the presence of CuCl2, ascorbate, air and ligand (Amplex Red H2O2/HRP); type: biochemical; settings: CuCl2 0.4 μM, ascorbate 10 μM, air
Description: (§1) FIG. 11: Variation in H2O2 production by copper complexes of Aβ1-42 peptide as a function of the Cu(II)/Aβ stoichiometry. Experiments are carried out for 5 minutes in a sodium phosphate buffer (pH=7.4) in the presence 0.4 μM CuCl2, 10 μM ascorbate and air with or without 0.4 μM of 3 or 7. The H2O2 released is quantified by means of an Amplex-Red H2O2/HRP Assay kit.
(§2) The final concentrations are given. The reactions were carried out in the dark in mM sodium phosphate buffer (pH=7.4). Aβ1-42 (0.2 μM) and CuCl2 (0.4 μM) were pre-incubated for 1 hour at 37° C. while stirring at 1,400 rpm in 375 μl of buffer. Then 2 μl of a solution of ligand to be investigated (0.2; 0.4 or 0.8 μM) in DMSO were added. After incubation for a further hour, 2 μl of an aqueous sodium ascorbate solution (10 μM) were added and incubation was continued for 5 min while stirring. The amount of H2O2 produced is then quantified using an Amplex Red H2O2/HRP Assay Kit (Molecular Probes) while adding a volume of assay reagent to the samples, then incubating them for 1 hour at 37° C. while stirring at 500 rpm. […] Quantification is carried out on the basis of standard curves obtained with known amounts of H2O2.
(§3) The figures in the tables correspond to the amount of H2O2 (expressed in nanomoles) added using an Amplex Red H2O2/HRP Assay kit.

[3] = target: T2, copper complexes of Aβ1-42 peptide (Homo sapiens, UniProt P05067); assay: as above; type: biochemical; settings: CuCl2 0.4 μM, ascorbate 10 μM, air
T2 construct: The β-amyloid peptide Aβ1-42 (Aβ1-42) was synthesised, purified (to a purity greater than 95%); made in house; host or cells: chemical peptide synthesis (no expression host)
T2 sequence (P05067 672-713 limits assumed, one chain of several): as the sequence (P05067 672-713) above
Description: as §1, §2, §3

[4] = Competition reaction between ligand (Ls), CuCl2 and competing chelator (Lc), UV-visible; affinity constants; settings: Ls/CuCl2/Lc 1/1/1 at 15 μM; solvent per ligand as in Table 3
[5] = Determination of log D7.4 (1-octanol / Tris-HCl buffer); type: physicochemical; settings: 1-octanol / 20 mM Tris-HCl buffer containing 150 mM NaCl (pH = 7.4) (1/1, v/v)
Description: The ligand (2.0 mg) is dissolved in 2 ml of 1-octanol then 2 ml of 20 mM Tris-HCl buffer, pH=7.4 containing 150 mM NaCl are added. After mixing in a vortex for 3 min at ambient temperature, followed by centrifugation for 5 min at 9,000 rpm, the concentration of the ligand in each phase is determined by UV-visible spectrophotometry. The 1-octanol fractions are thus redivided until reproducible values of coefficient of division of obtained. This coefficient is expressed as the decimal logarithm of [(the concentration of ligand contained in the 1-octanol phase)/(the concentration of ligand contained in the buffered aqueous phase)]=log D7.4. Measurements were taken three times.

[6] = tested on: Salmonella tiphimurium TA98; assay: AMES test, TA98; settings: value per plate
Description: (§4) AMES test: The method is adapted from D. M. Maron and B. N. Ames, Mutat.
(§5) The test involves evaluating the potential of the tested molecules to induce mutation which is reverse to the histidine locus of these lines. These two lines were provided by Dr. Bruce N. Ames (University of California, Berkeley, USA). They are resistant to Ampicillin and sensitive to Tetracycline. They are not mutant toward rfa, UvγV and UvγA. The line TA98 (his D3052) contains a mutation of reading phase (GC) whereas the line TA100 (his G46) contains a substitution of base pair (GC).
(§6) The compounds to be tested were dissolved in 100% of DMSO (the solvent) and diluted logarithmically (by a factor of 10) so as to obtain 4 test concentrations of 30,000; 3,000; 300 and 30 μg/ml. Each series of 0.1 ml of stock solution to be tested, 0.1 ml of test line and of culture medium with or without 0.5 ml of enzymatic homogenate (S9) of rat liver microsome were mixed with 2 ml of molten agarose (containing 0.5 mM of histidine and 0.5 mM of biotin). This mixture was placed on the surface of a plate of minimal agarose glucose medium (30 ml for each Petri dish) so as to obtain final concentrations of compound to be tested of 3,000; 300; 30 and 3 μγ/plate. The plates were then incubated at 37° C. for 48 hours. […] The revertant colonies of the test lines were counted using a colony counter (Sigma). […] A compound inducing a number of colonies <50% of cells obtained for the solvent alone was deemed to be toxic for the bacteria tested. All the experiments were carried out in triplicate.

[7] = tested on: Salmonella tiphimurium TA100; assay: AMES test, TA100; settings: value per plate
Description: as §4, §5, §6

[8] = tested on: copper complexes of Aβ1-42 peptide; assay: Stability of H2O2 during the H2O2 production inhibition experiments (known amount of H2O2 added); type: biochemical; settings: Aβ1-42 0.2 μM, Cu(II), ascorbate, ligand, 3.0 nanomoles H2O2 added just before the ascorbate
Description: (§7) The final concentrations are given. The reactions were carried out in the dark in mM sodium phosphate buffer (pH=7.4). Aβ1-42 (0.2 μM) and CuCl2 (0.4 μM) were pre-incubated for 1 hour at 37° C. while stirring at 1,400 rpm in 375 μl of buffer. Then 2 μl of a solution of ligand to be investigated (0.2; 0.4 or 0.8 μM) in DMSO were added. After incubation for a further hour, 2 μl of an aqueous sodium ascorbate solution (10 μM) were added and incubation was continued for 5 min while stirring. The amount of H2O2 produced is then quantified using an Amplex Red H2O2/HRP Assay Kit (Molecular Probes) while adding a volume of assay reagent to the samples, then incubating them for 1 hour at 37° C. while stirring at 500 rpm. H2O2 is then detected by spectrophotometry at 563 nm. Quantification is carried out on the basis of standard curves obtained with known amounts of H2O2.
(§8) Experiments were also carried out in the presence of a known amount of H2O2, added just before or just after the addition of sodium ascorbate, in order to investigate the stability of H2O2 under the experimental conditions employed.

[9] = target: T2, copper complexes of Aβ1-42 peptide; assay: as above; type: biochemical; settings: Aβ1-42 0.2 μM, Cu(II) 0.4 μM, ascorbate 10 μM, ligand 0.4 μM
Description: as §7, §8

Row | Structure (SMILES) | Complex observed by titration with Cu^II (observed L/Cu(II) stoichiometry) [1] | CuCl2 % soluble Aβ (Aβ1-42) | FeCl3 % soluble Aβ (Aβ1-42) | ZnCl2 % soluble Aβ (Aβ1-42) | without metal % soluble Aβ (Aβ1-42) | amount of H2O2, without Aβ1-42 ([2]; ligand 1 eq/Cu(II) (0.4 μM)) | amount of H2O2, 0.2 μM Aβ1-42 Cu/Aβ = 2 ([3]; ligand 1 eq/Cu(II) (0.4 μM)) | amount of H2O2, 0.5 μM Aβ1-42 Cu/Aβ = 0.75 ([3]; ligand 1 eq/Cu(II) (0.4 μM)) | percentage of the CuLs species at equilibrium, competing ligand EDTA [4] | logD at 3 min [5] | TA98 Cytotoxicity ([6]; Addition of S9: no) | TA98 Cytotoxicity ([6]; Addition of S9: yes) | amount of H2O2, without Aβ1-42 ([2]; ligand 2 eq/Cu(II)) | amount of H2O2, 0.2 μM Aβ1-42 Cu/Aβ = 2 ([3]; ligand 2 eq/Cu(II)) | amount of H2O2, 0.5 μM Aβ1-42 Cu/Aβ = 0.75 ([3]; ligand 2 eq/Cu(II)) | TA100 Cytotoxicity ([7]; Addition of S9: no) | TA100 Cytotoxicity ([7]; Addition of S9: yes) | theoretical value of H2O2 if there is no degradation (in parentheses) [8] | H2O2 assayed ([9]; 3.0 nanomoles H2O2 added just before the ascorbate) | H2O2 assayed ([9]; no H2O2 added)
1 | CCCCN(c1ccc2cccc(N)c2n1)c1ccc2cccc(N)c2n1 [Compound 23, N-butyl-2,2′-imino-bis(8-quinolineamine)] | LCu^II(1/1) | 60 ± 4% | 62% | 58 ± 4% | 73% | 0.65 nmol | 0.69 nmol | 0.49 nmol | 30% | 2.5 ± 0.1 | – | – | – | – | – | – | – | – | – | –
2 | Oc1c(I)cc(Cl)c2cccnc12 [Clioquinol, reference compound] | – | 55 ± 3% | 51% | 37% | 63% | 2.07 nmol | 0.89 ± 0.08 nmol | 0.64 nmol | – | 3.8 ± 0.1 | 300 µg | 300 µg | 0.54 nmol | 0.78 ± 0.06 nmol | 0.57 nmol | 30 µg | 30 µg | – | – | –
3 | Cc1ccc2cccc(NCCNc3cccc4ccc(C)nc34)c2n1 [Compound 14, N,N′-bis(2-methyl-8-quinolinyl)-1,2-ethanediamine] | – | 45 ± 3% | 51% | 57% | 79 ± 3% | 0.74 nmol | 1.99 nmol | 0.78 nmol | – | 1.8 ± 0.1 | – | – | – | – | – | – | – | 5.0 nmol | 4.9 nmol | 1.99 ± 0.11 nmol
